Source: PMC6324787, “Deletion of genes involved in the ketogluconate metabolism, Entner-Doudoroff pathway, and glucose dehydrogenase increase local and invasive virulence phenotypes in Streptococcus pneumoniae” (PLoS ONE, 2019)

What was measured:
[1] = target: T1, SP 0318 (Streptococcus pneumoniae, UniProt A0A0H2UNG9); assay: ADP-glucokinase / G6PDH-coupled NADPH formation, A340; type: biochemical; conditions: 10 mM KDG, 2.5 mM ATP, 10 mM MgCl2, 50 mM Tris-Cl, pH 8.5, 37 °C
T1 construct: gene SP_0318
T1 sequence (A0A0H2UNG9 1-333): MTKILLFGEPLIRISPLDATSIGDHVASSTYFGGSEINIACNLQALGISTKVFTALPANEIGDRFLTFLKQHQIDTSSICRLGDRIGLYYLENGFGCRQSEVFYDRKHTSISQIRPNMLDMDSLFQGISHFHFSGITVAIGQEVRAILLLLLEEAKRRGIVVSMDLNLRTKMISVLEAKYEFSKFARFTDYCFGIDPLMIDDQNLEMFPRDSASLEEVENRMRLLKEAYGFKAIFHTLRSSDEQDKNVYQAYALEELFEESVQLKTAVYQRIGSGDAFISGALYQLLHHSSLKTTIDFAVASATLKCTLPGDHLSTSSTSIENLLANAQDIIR

[2] = target: T2, SP 0320 (Streptococcus pneumoniae, UniProt A0A0H2UNC9); assay: NADH oxidation, A340; type: biochemical; conditions: 300 mM potassium 5-keto-D-gluconate, 150 µM NADH, 100 mM Tris-Cl, pH 6.5, 37 °C
T2 construct: gene SP_0320
T2 sequence (A0A0H2UNC9 1-271): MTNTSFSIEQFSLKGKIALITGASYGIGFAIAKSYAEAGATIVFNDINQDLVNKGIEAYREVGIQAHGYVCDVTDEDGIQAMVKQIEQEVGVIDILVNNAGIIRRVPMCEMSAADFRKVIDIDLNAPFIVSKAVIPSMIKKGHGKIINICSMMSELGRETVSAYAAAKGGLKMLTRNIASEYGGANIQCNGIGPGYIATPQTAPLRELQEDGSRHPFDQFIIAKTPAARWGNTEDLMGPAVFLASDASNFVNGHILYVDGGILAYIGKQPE

Structure (SMILES) | ADP-glucokinase / G6PDH-coupled NADPH formation, A340 [1] | NADH oxidation, A340 [2]
Nc1ncnc2c1ncn2[C@@H]1O[C@H](COP(=O)(O)OP(=O)(O)OP(=O)(O)O)[C@@H](O)[C@H]1O [ATP] | phosphorylation of 2-keto-3-deoxygluconate (KDG) in the presence of ATP to give KDGP | –
NC(=O)C1=CN([C@@H]2O[C@H](COP(=O)(O)OP(=O)(O)OC[C@H]3O[C@@H](n4cnc5c(N)ncnc54)[C@H](O)[C@@H]3O)[C@@H](O)[C@H]2O)C=CC1 [NADH] | – | reduction of 5-keto-D-gluconate to D-gluconate with the subsequent oxidation of NADH
